Type in all cases: functional
Assay [1] concerns Clostridium perfringens. The assay is described as follows: Antimicrobial activity against Clostridium perfringens LFM1 assessed as susceptibility breakpoint by DIN-standardized microdilution method. Background: Broth dilution looks for growth in wells or tubes with falling amounts of substance.
Assay [2] relates to Escherichia coli. The assay is described as follows: Antimicrobial activity against flo gene positive Escherichia coli.
Assay [3] relates to Clostridium perfringens. The assay is described as follows: Antimicrobial activity against Clostridium perfringens LFM1 assessed as susceptibility breakpoint by DANMAP method.
The test system of assay [4] is Clostridium perfringens. Put plainly: Antimicrobial activity against Clostridium perfringens LFM1 assessed as susceptibility breakpoint by EUCAST method.

Active and inactive are the calls of the source. Where only a bound is given, the exact number is not on record here.

On to `CCC[C@@H]1C[C@@H](C(=O)N[C@@H]([C@H]2O[C@H](SC)[C@H](O)[C@@H](O)[C@H]2O)[C@H](C)Cl)N(C)C1`, for which, in assay [1], the outcome was inactive.
For orientation: MIC means the smallest concentration in the dilution series that meets the test's criterion for growth inhibition. Read a low MIC as greater potency. For the compound `CC(=O)NC[C@H]1CN(c2ccc(N3CCOCC3)c(F)c2)C(=O)O1` [LINEZOLID], in assay [2], the MIC was more than 64 mg/L. Moreover, the Activity result in assay [3], in assay [4] (record 2) and in assay [1] was “<=2 mg/L” throughout. Also, the result in assay [4] was inactive.
For `CC[C@H]1OC(=O)[C@H](C)[C@@H](O[C@H]2C[C@@](C)(OC)[C@@H](O)[C@H](C)O2)[C@H](C)[C@@H](O[C@@H]2O[C@H](C)C[C@H](N(C)C)[C@H]2O)[C@](C)(O)C[C@@H](C)C(=O)[C@H](C)[C@@H](O)[C@]1(C)O`, the result in assay [1] was inactive.
With `O=C(N[C@H](CO)[C@H](O)c1ccc([N+](=O)[O-])cc1)C(Cl)Cl`, the outcome in assay [3] was inactive.
Consider `CS(=O)(=O)c1ccc([C@@H](O)[C@@H](CF)NC(=O)C(Cl)Cl)cc1` [FLORFENICOL], for which the MIC in assay [2] is more than 32 mg/L. Also, the outcome in assay [3] was inactive.

These data come from ChEMBL document CHEMBL1240402 (2010).
